Data on 14 molecules can be found in US7166567B2, “Fragrance compositions” (Givaudan SA, priority 2000, dated 2007).

Read-outs that look alike come from different tables or passages of the source.

Format in all cases: physicochemical
The nature of series [1]: Retention of fragrance material components after granulation by GC/MS. Conditions: for Divided. Initial Retention: fragrance divided between core particles and outer matrix (Example 2.2); for Undivided. Initial Retention: whole fragrance in outer matrix (Example 2.1). The text has this:
In this example, fragrance material components are divided between core particles and outer matrix. The selection is made such that fragrance components having a loss factor of FL>10^2 Pa ppm are present in core particles whereas the components having a loss factor of FL<10^2 Pa ppm are present in the outer matrix. Such a composition is then compared with a composition wherein total fragrance material is provided in an outer matrix, the core particles being fragrance material-free. […] The retention of certain fragrance material components after the granulation process was measured by GC/MS analysis.

A short description of series [2]: Loss Factor (vapour pressure x water solubility at room temperature). From the text:
Preferred components of a fragrance material for addition to the outer matrix are substances that have a Loss Factor (FL) that is lower than 10^2 Pa ppm. The term <<Loss Factor>> refers to a parameter that is related to the losses of fragrance material during drying and is defined as the product of the pure component vapour pressure (Pa) and the water solubility (ppm) at room temperature. Vapour pressures and water solubility data for commercially available fragrance components are well known and so the Loss Factor for a given fragrance component may be easily calculated. Alternatively, vapour pressure and water solubility measurements may be easily taken using techniques well known in the art. […] The water solubility of fragrances may be measured according to techniques known in the art for the measurement of sparingly water-soluble materials. A preferred technique involves the formation of a saturated solution of a fragrance component in water. A tube with a dialysed membrane is placed in the solution such that after equilibration an idealised solution is formed within the tube. The tube may be removed and the water solution therein extracted with a suitable organic solvent to remove the fragrance component. Finally the extracted fragrance component may be concentrated and measured, for example using gas chromatography.

The nature of series [3]: Aged retention of fragrance components in powder detergent, GC/MS. Conditions: 1 month, 37° C., 70% relative humidity; for Retention With coating: composition as Example 1 with coating in detergent base; for Retention Without coating: composition as Example 1 without coating in detergent base; for Retention free perfume: free perfume in detergent base, 0.35 wt %. Here is the method:
Compositions were prepared substantially as set out in Example 1 wherein one composition was provided with a coating and the other not.
Compositions were incorporated into standard, unperfumed detergent bases resulting in 130.00 g perfumed powder detergent with a perfume level of 0.35 wt % based on total powder detergent. As a reference, 0.46 g of free perfume was incorporated into 129.54 g of the same standard detergent base. Both samples and reference were filled separately into carton boxes, sealed and stored in a climate chamber at 70% relative humidity and 37° C. for 1 month. All samples were compared in terms of aged fragrance material profile measured by GC/MS analysis.

Setting [4] is: vapour pressure (Pa) x water solubility (ppm), room temperature.

As to `CCCCCCCCCC=O` [Aldehyde C10], in series [1], the “Divided. Initial Retention” value is 93% and the “Undivided. Initial Retention” value is reported as 44%. Further, the “Loss Factor FL” value in series [2] turned out to be 424 Pa ppm.

Regarding `CC(=O)OCc1ccccc1` [Benzyl acetate], in series [3], the “Retention With coating” value worked out at 50%, the “Retention Without coating” value worked out at 26% and the Retention free perfume was determined as 0%.

As to `O=C(OCc1ccccc1)c1ccccc1` [Benzyl benzoate], in series [1], the “Divided. Initial Retention” value was 88% and the “Undivided. Initial Retention” value came out at 99%.

As to `CC(=O)/C=C/C1=C(C)CCCC1(C)C` [Beta ionone], in series [1], the “Divided. Initial Retention” value stood at 100% and the “Undivided. Initial Retention” value is given as 75%. Further, the “Loss Factor FL” value in series [2] (setting [4]) was determined as 90 Pa ppm.

For the molecule `CC(C)=CCCC(C)CCO` (centres unmarked) [Citronellol], in series [1], the “Divided. Initial Retention” value is listed as 100% and the “Undivided. Initial Retention” value worked out at 53%. In addition, the “Loss Factor FL” value in series [2] (setting [4]) was 761 Pa ppm. Also, in series [3], the “Retention With coating” value was determined as 71%, the “Retention Without coating” value is on record as 18% and the Retention free perfume is 26%.

In the case of `O=C(OC1CCCCC1)c1ccccc1O` [Cyclohexyl salicylate], in series [1], the “Divided. Initial Retention” value is 94% and the “Undivided. Initial Retention” value came to 91%. Also, in series [2] (setting [4]), the “Loss Factor FL” value came to 1.37 Pa ppm.

For `CC(=O)CCC1=C(C)CCCC1(C)C` [Dihydro beta ionone], in series [1], the “Divided. Initial Retention” value was 84% and the “Undivided. Initial Retention” value turned out to be 56%. For the same molecule, the “Loss Factor FL” value in series [2] was determined as 84 Pa ppm.

Turning to `CC(=O)/C(C)=C/C1C(C)=CCCC1(C)C` (centres unmarked) [Gamma methyl ionone], in series [3], the “Retention With coating” value is recorded as 91%, the “Retention Without coating” value is 51% and the Retention free perfume amounted to 49%.

Regarding `CCCCCCOC(=O)c1ccccc1O` [Hexyl salicylate], in series [3], the “Retention With coating” value amounted to 94%, the “Retention Without coating” value is given as 47% and the Retention free perfume was determined as 18%.

With `CC(C=O)Cc1ccc(C(C)(C)C)cc1` (centres unmarked) [Lilial], in series [3], the “Retention With coating” value is 65%, the “Retention Without coating” value was 36% and the Retention free perfume turned out to be 4%.

In the case of `C=C(C)[C@H]1CC=C(C)CC1` [Limonene], in series [3], the “Retention With coating” value is recorded as 41%, the “Retention Without coating” value is reported as 18% and the Retention free perfume was 0%.

For the molecule `C=CC(C)(CCC=C(C)C)OC(C)=O` (centres unmarked) [Linalyl acetate], in series [3], the “Retention With coating” value came to 80%, the “Retention Without coating” value is 39% and the Retention free perfume was found to be 8%.

On to `OCCc1ccccc1` [Phenyl ethyl alcohol], for which, in series [3], the “Retention With coating” value is 72%, the “Retention Without coating” value was found to be 36% and the Retention free perfume was 25%.

For `CCC(C)(O)CCCC(C)C` (centres unmarked) [Tetrahydro linalool], in series [1], the “Divided. Initial Retention” value worked out at 97% and the “Undivided. Initial Retention” value is listed as 47%. In series [2] (setting [4]), the “Loss Factor FL” value is 3466 Pa ppm. In addition, in series [3], the “Retention With coating” value is listed as 84%, the “Retention Without coating” value worked out at 50% and the Retention free perfume was 33%.
